Results on 30 compounds are retold here after patent US20220313698A1, “MODULATORS OF CYSTIC FIBROSIS TRANSMEMBRANE CONDUCTANCE REGULATOR” (Vertex Pharmaceuticals Incorporated, priority 2019, published 2022).

SMILES strings stand for the structures.

This experiment has as its target CFTR-mediated chloride transport (Homo sapiens, UniProt P13569). The experiment can be described thus: Corrector Assay A - membrane potential dye assay (enteroid cells). The conditions noted are these: for Corrector Assay A % activity: % of chloride transport of triple combination control (1 μM (14S)-dispiro macrocycle + 3 μM tezacaftor + 300 nM ivacaftor); for EC50: read-out: Corrector Assay A EC50, human intestinal enteroid cells, 18-24 h incubation, acute 10 μM forskolin + 300 nM ivacaftor.

Consider `CN(C)CC(=O)N1CCC(C2CC[C@@H]3CN(c4nc(C(C)(C)C)ccc4C(=O)NS(=O)(=O)c4cccc(n4)N2)C(C)(C)C3)CC1` (stereo partly drawn) [Compound 236, (14S)-8-tert-butyl-17-{1-[2-(dimethylamino)acetyl]piperidin-4-yl}-12,12-dimethyl-2λ^6-thia-3,9,11,18,23-pentaazatetracyclo[17.3.1.111,14.05,10]tetracosa-1(23),5(10),6,8,19,21-hexaene-2,2,4-trione], for which the “Corrector Assay A % activity” value was “++ (++ is 30-60%)” and the EC50 was in the range of 1000 to 3000 nM.

Consider `CC(C)(C)c1ccc2c(n1)N1C[C@@H](CCC(C3CCN(C(=O)OCc4ccccc4)CC3)Nc3cccc(n3)S(=O)(=O)NC2=O)CC1(C)C` (single isomer, unassigned) [Compound 254], for which the “Corrector Assay A % activity” value is reported as “+ (+ is <30%)” and the EC50 is less than 1000 nM.

For `CC(C)(C)c1ccc2c(n1)N1C[C@@H](CCC(c3cc(C4COC4)ccn3)Nc3cccc(n3)S(=O)(=O)NC2=O)CC1(C)C` (single isomer, unassigned) [Compound 25], the “Corrector Assay A % activity” value is “+++ (+++ is >60%)” and the EC50 was less than 1000 nM.

Consider `CC(C)(C)c1ccc2c(n1)N1C[C@@H](CC[C@@H](c3cccc(C4CCNCC4)n3)Nc3cccc(n3)S(=O)(=O)NC2=O)CC1(C)C` [Compound 131], for which the “Corrector Assay A % activity” value is on record as “+ (+ is <30%)” and the EC50 is more than 3000 nM.

Regarding `CC(C)(C)c1ccc2c(n1)N1C[C@@H](CCC(c3ccc(CCC(=O)O)cn3)Nc3cccc(n3)S(=O)(=O)NC2=O)CC1(C)C` (stereo partly drawn) [Compound 98, 3-{6-[(14S)-8-tert-Butyl-12,12-dimethyl-2,2,4-trioxo-2λ^6-thia-3,9,11,18,23-pentaazatetracyclo[17.3.1.111,14.05,10]tetracosa-1(23),5(10),6,8,19,21-hexaen-17-yl]pyridin-3-yl}propanoic acid], the “Corrector Assay A % activity” value is on record as “+ (+ is <30%)” and the EC50 lay within 1000 to 3000 nM.

As to `COC(=O)NCc1cccc([C@H]2CC[C@@H]3CN(c4nc(C(C)(C)C)ccc4C(=O)NS(=O)(=O)c4cccc(n4)N2)C(C)(C)C3)n1` [Compound 101, Methyl N-({6-[(14S,17R)-8-tert-butyl-12,12-dimethyl-2,2,4-trioxo-2λ^6-thia-3,9,11,18,23-pentaazatetracyclo[17.3.1.111,14.05,10]tetracosa-1(22),5,7,9,19(23),20-hexaen-17-yl]pyridin-2-yl}methyl)carbamate], the “Corrector Assay A % activity” value was “++ (++ is 30-60%)” and the EC50 is less than 1000 nM.

On to `CC(C)(C)c1ccc2c(n1)N1C[C@@H](CCC(c3cc(CN)ccn3)Nc3cccc(n3)S(=O)(=O)NC2=O)CC1(C)C` (single isomer, unassigned) [Compound 116], for which the “Corrector Assay A % activity” value was “+++ (+++ is >60%)” and the 50% effective concentration (EC50) was less than 1000 nM.

On to `CC(C)(C)c1ccc2c(n1)N1C[C@@H](CC[C@H](c3cccc(-c4ccn[nH]4)n3)Nc3cccc(n3)S(=O)(=O)NC2=O)CC1(C)C` [Compound 77], for which the “Corrector Assay A % activity” value is “++ (++ is 30-60%)” and the 50% effective concentration (EC50) is less than 1000 nM.

For the compound `CC(C)(C)c1ccc2c(n1)N1C[C@@H](CC[C@@H](c3cccc(C#N)n3)Nc3cccc(n3)S(=O)(=O)NC2=O)CC1(C)C` [Compound 210], the “Corrector Assay A % activity” value is recorded as “++ (++ is 30-60%)” and the EC50 was less than 1000 nM.

As to `CC(C)(C)c1ccc2c(n1)N1C[C@@H](CC[C@@H](c3cc(C4=CCOCC4)ccn3)Nc3cccc(n3)S(=O)(=O)NC2=O)CC1(C)C` (single isomer, unassigned) [Compound 125], the “Corrector Assay A % activity” value was “+++ (+++ is >60%)” and the EC50 was less than 1000 nM.

With `CC(C)C1CC[C@@H]2CN(c3nc(-n4ccc(OCCC5C6(CC6)C56CC6)n4)ccc3C(=O)NS(=O)(=O)c3cccc(n3)N1)C(C)(C)C2` (single isomer, unassigned) [Compound 353], the “Corrector Assay A % activity” value is on record as “+++ (+++ is >60%)” and the EC50 is less than 1000 nM.

For the compound `CC(C)(C)c1ccc2c(n1)N1C[C@@H](CCC(CCCC(=O)O)Nc3cccc(n3)S(=O)(=O)NC2=O)CC1(C)C` (stereo partly drawn) [Compound 19, 4-[(14S)-8-tert-Butyl-12,12-dimethyl-2,2,4-trioxo-2λ^6-thia-3,9,11,18,23-pentaazatetracyclo[17.3.1.111,14.05,10]tetracosa-1(23),5(10),6,8,19,21-hexaen-17-yl]butanoic acid], the “Corrector Assay A % activity” value is on record as “+++ (+++ is >60%)” and the EC50 was in the range of 1000 to 3000 nM.

As for `CC(C)(C)c1ccc2c(n1)N1C[C@@H](CC[C@H](c3cccc(-c4cn[nH]c4)n3)Nc3cccc(n3)S(=O)(=O)NC2=O)CC1(C)C` [Compound 67], the “Corrector Assay A % activity” value is “+++ (+++ is >60%)” and the EC50 was less than 1000 nM.

As to `CC(C)(C)c1ccc2c(n1)N1C[C@@H](CCC(c3ccc(C4CC(F)(F)C4)cn3)Nc3cccc(n3)S(=O)(=O)NC2=O)CC1(C)C` (stereo partly drawn) [Compound 21], the “Corrector Assay A % activity” value was “+++ (+++ is >60%)” and the EC50 was less than 1000 nM.

In the case of `Cc1cccc2cc3c(nc12)N1C[C@@H](CCC(c2cc(C(C)(C)C)ccn2)Nc2cccc(n2)S(=O)(=O)NC3=O)CC1(C)C` (single isomer, unassigned) [Compound 3], the “Corrector Assay A % activity” value is “+++ (+++ is >60%)” and the EC50 is less than 1000 nM.

As for `CC(C)(C)c1ccc2c(n1)N1C[C@@H](CCC(c3ccc(CCCN)cn3)Nc3cccc(n3)S(=O)(=O)NC2=O)CC1(C)C` (stereo partly drawn) [Compound 137], the “Corrector Assay A % activity” value is “++ (++ is 30-60%)” and the EC50 is less than 1000 nM.

Regarding `CC(C)(C)c1ccc2c(n1)N1C[C@@H](CCC(c3ccc(CCN)cn3)Nc3cccc(n3)S(=O)(=O)NC2=O)CC1(C)C` (stereo partly drawn) [Compound 113], the “Corrector Assay A % activity” value was “++ (++ is 30-60%)” and the EC50 is less than 1000 nM.

Turning to `CC(=O)NCc1ccc(C2CC[C@@H]3CN(c4nc(C(C)(C)C)ccc4C(=O)NS(=O)(=O)c4cccc(n4)N2)C(C)(C)C3)nc1` (stereo partly drawn) [Compound 72, N-({6-[(14S)-8-tert-Butyl-12,12-dimethyl-2,2,4-trioxo-2λ^6-thia-3,9,11,18,23-pentaazatetracyclo[17.3.1.111,14.05,10]tetracosa-1(23),5(10),6,8,19,21-hexaen-17-yl]pyridin-3-yl}methyl)acetamide], the “Corrector Assay A % activity” value is recorded as “++ (++ is 30-60%)” and the EC50 was less than 1000 nM.

With `COc1ccn(-c2ccc3c(n2)N2C[C@@H](CC[C@H](c4ccccn4)Nc4cccc(n4)S(=O)(=O)NC3=O)CC2(C)C)n1` [Compound 335], the “Corrector Assay A % activity” value is recorded as “+++ (+++ is >60%)” and the EC50 was less than 1000 nM.

As to `CC(C)(C)c1ccc2c(n1)N1C[C@@H](CCC(c3cc(C(N)=O)ccn3)Nc3cccc(n3)S(=O)(=O)NC2=O)CC1(C)C` (single isomer, unassigned) [Compound 82], the “Corrector Assay A % activity” value is “++ (++ is 30-60%)” and the 50% effective concentration (EC50) was less than 1000 nM.

As to `CC(C)(C)c1ccc2c(n1)N1CC(CCCNc3cncc(n3)S(=O)(=O)NC2=O)CC1(C)C` (single isomer, unassigned) [Compound 253, 8-tert-Butyl-12,12-dimethyl-2λ^6-thia-3,9,11,18,21,23-hexaazatetracyclo[17.3.1.111,14.05,10]tetracosa-1(22),5,7,9,19(23),20-hexaene-2,2,4-trione], the “Corrector Assay A % activity” value is reported as “+ (+ is <30%)” and the concentration giving a half-maximal response (EC50) is more than 3000 nM.

`CC(C)(C)c1ccc2c(n1)N1C[C@@H](CCC(c3ccc(C4=CCOCC4)cn3)Nc3cccc(n3)S(=O)(=O)NC2=O)CC1(C)C` (stereo partly drawn) [Compound 167]: the “Corrector Assay A % activity” value is listed as “++ (++ is 30-60%)” and the half-maximal effective concentration (EC50) was less than 1000 nM.

Turning to `CC(C)(C)c1ccc2c(n1)N1C[C@@H](CCC(c3ccc(C#N)cn3)Nc3cccc(n3)S(=O)(=O)NC2=O)CC1(C)C` (stereo partly drawn) [Compound 204], the “Corrector Assay A % activity” value is “+++ (+++ is >60%)” and the EC50 is less than 1000 nM.

On to `CC(C)(C)c1ccc2c(n1)N1C[C@@H](CC[C@H](c3cccc(C4=CCOCC4)n3)Nc3cccc(n3)S(=O)(=O)NC2=O)CC1(C)C` [Compound 150], for which the “Corrector Assay A % activity” value is reported as “+++ (+++ is >60%)” and the EC50 was less than 1000 nM.

Take `CC1(C)C[C@@H]2CC[C@H](c3ccccn3)Nc3cccc(n3)S(=O)(=O)NC(=O)c3ccc(-c4cccc(OCCC5CC5)n4)nc3N1C2` [Compound 311]: the “Corrector Assay A % activity” value was “+++ (+++ is >60%)” and the concentration for a half-maximal effect (EC50) is less than 1000 nM.

As to `CC(C)(C)c1ccc2c(n1)N1C[C@@H](CC[C@@H](c3cccc(C4=CCNCC4)n3)Nc3cccc(n3)S(=O)(=O)NC2=O)CC1(C)C` [Compound 141], the “Corrector Assay A % activity” value is recorded as “++ (++ is 30-60%)” and the half-maximal effective concentration (EC50) was 1000 to 3000 nM.

Consider `CC(C)(C)c1ccc2c(n1)N1C[C@@H](CCC(c3cc(N)ccn3)Nc3cccc(n3)S(=O)(=O)NC2=O)CC1(C)C` (single isomer, unassigned) [Compound 49], for which the “Corrector Assay A % activity” value is “++ (++ is 30-60%)” and the EC50 was less than 1000 nM.

For `CC(C)(O)/C=C/CC1CC[C@@H]2CN(c3nc(C(C)(C)C)ccc3C(=O)NS(=O)(=O)c3cccc(n3)N1)C(C)(C)C2` (single isomer, unassigned) [Compound 23], the “Corrector Assay A % activity” value is given as “+++ (+++ is >60%)” and the EC50 is less than 1000 nM.

As to `CC(C)(C)c1ccc2c(n1)N1C[C@@H](CCC(c3ccc(C#N)cn3)Nc3cccc(n3)S(=O)(=O)NC2=O)CC1(C)C` (single isomer, unassigned) [Compound 205], the “Corrector Assay A % activity” value is recorded as “+++ (+++ is >60%)” and the concentration for a half-maximal effect (EC50) is less than 1000 nM.

As to `COC(=O)CCc1ccc(C2CC[C@@H]3CN(c4nc(C(C)(C)C)ccc4C(=O)NS(=O)(=O)c4cccc(n4)N2)C(C)(C)C3)nc1` (stereo partly drawn) [Compound 91, methyl 3-{6-[(14S)-8-tert-butyl-12,12-dimethyl-2,2,4-trioxo-2λ^6-thia-3,9,11,18,23-pentaazatetracyclo[17.3.1.111,14.05,10]tetracosa-1(23),5(10),6,8,19,21-hexaen-17-yl]pyridin-3-yl}propanoate], the “Corrector Assay A % activity” value was “++ (++ is 30-60%)” and the concentration for a half-maximal effect (EC50) is more than 3000 nM.
